What was measured:
[1] = test system: B16 cells; assay: Cell proliferation MTT assay; type: cell-based, mouse; details: B16 cells in vitro, 48 h
Description: (§1) Cell proliferation was measured by MTT assay as previously described. The cells were seeded in a volume of 200 μL/well in 96-well plates. The next day, cells were treated with DMSO or a series of concentrations of KTC1101. After a 48-h incubation period, 20 μL of MTT (5 mg/mL) was added to each well. After further incubation for 4 h at 37 °C, the absorbance at 490 nm was measured using an iMark microplate reader (BIO-RAD, Hercules, CA, USA).

[2] = test system: S24 cells; assay: Cell proliferation MTT assay; type: cell-based, mouse; details: 48 h
Description: as §1

[3] = test system: PC3, TMD8, HSC2, HSC4, CAL33 cells; assay: Cell proliferation MTT assay, five tumor cell lines; type: cell-based; details: Homo sapiens; cell viability assay; read-out: IC50 range over PC3, TMD8, HSC2, HSC4, CAL33 cells
Description: as §1

[4] = test system: phosphorylation of AKT and mTOR; assay: Western blot of PI3K pathway; type: cell-based, human; details: 48 h
Description: Western blots were performed as previously described. Cells were seeded into six-well plates and treated with DMSO or a series of concentrations of KTC1101. Cells were lysed, and total proteins were harvested. Equal amounts of protein (20–50 μg) were separated using 8% or 12% SDS-PAGE and transferred to polyvinylidene difluoride membranes (Bio-Rad). After blocking in 5% nonfat dry milk, the membranes were incubated with appropriate primary antibodies overnight at 4 °C, washed, and incubated with respective HRP-conjugated secondary antibodies for 1 h at room temperature. The signals were detected using a ChemiDoc XRS + System (Bio-Rad) after exposure to chemiluminescence reagents (Bio-Rad), and β-actin served as the loading control.

[5] = test system: tumor cell lines; assay: Apoptosis analysis; type: cell-based, human; details: tested cell lines, 48 h
[6] = test system: S24 tumors; assay: S24 tumors in NSG mice; type: in vivo, mouse; details: 100 mg/kg daily oral gavage
Description: BALB/c nude, NSG, and C57BL/6J mice were obtained from Tianjin Medical University. The housing temperature was controlled, ranging from 20.5–24 °C, and humidity was monitored but not controlled ranging from 30–70%. The 12-h daily light cycle was from 06:00 to 18:00. To generate a murine subcutaneous tumor model, PC3 and HSC2 cells were subcutaneously injected into the right lateral flank of 4- to 5-week-old male BALB/c nude mice. TMD8, CAL33, and S24 cells were subcutaneously injected into the right lateral flank of 4- to 5-week-old male NSG mice. When tumors reached a volume of 300–500 mm^3, they were excised, diced into 2 mm × 2 mm × 2 mm pieces, and implanted into the right flanks of BALB/c nude or NSG mice. Tumors were allowed to grow to a volume of 100 mm^3, and then the animals were randomly divided into several groups. Each group of five mice was treated with either vehicle or KTC1101 (25, 50, or 100 mg/kg, PO). Tumor size was measured every 3 d or 4 d until the endpoint. The tumor volume was calculated using the following formula: length × width × height/2. At the end of the experimental period, mice were euthanized by overdosing on pentobarbital sodium, and the tumors were removed. Tumor tissue was formalin-fixed and paraffin-embedded for histological analysis.

[7] = test system: S24 tumors; assay: S24 syngeneic model in C57BL/6 mice; type: in vivo, mouse; details: S24 in WT C57BL/6 mice, 100 mg/kg daily oral gavage
Description: To generate syngeneic mouse models, S24 and B16 cells were subcutaneously injected into the right lateral flank of 4- to 5-week-old male C57BL/6 mice. Tumors were allowed to grow to a volume of 100 mm^3, and then the animals were randomly divided into several groups. For S24 tumor-bearing mice, each group of five mice was treated with either vehicle or KTC1101 (100 mg/kg, PO). Tumor size was measured every 3 d or 4 d until the endpoint. For B16 tumor-bearing mice, each group of five mice was treated with either vehicle, KTC1101 (50 or 100 mg/kg, PO), anti-PD-1 antibody (250 μg per mouse, clone RPM1-14, Bio X cell, IP), or KTC1101 and anti-PD-1 antibody. Tumor size was monitored every other day, and the tumor was harvested at indicated time points for analysis of tumor-infiltrating lymphocytes. The tumor volume was calculated using the following formula: length × width × height/2.

[8] = test system: B16 tumor tissue gene expression; assay: RNA-Seq (DEGs, GSEA, GSVA, CIBERSORT) of B16 tumors after KTC1101; type: in vivo, mouse; details: 100 mg/kg for 3 days
Source text: Total RNA was isolated using TRIzol reagent.
Cell-type Identification by Estimating Relative Subsets of RNA Transcripts (CIBERSORT) was used to perform a deconvolution analysis of the gene expression matrix based on the principle of linear […]. The CIBERSORT algorithm, with a reference to 511 mouse gene signatures, categorized immune cell populations into seven groups and calculated composition scores: B cells including memory, naive, and plasma cells; CD8^+ T cells including memory, naive, and activated cells; CD4^+ T cells including memory, naive, follicular, Th1, Th2, and Th17 cells; DCs including activated and immature cells; the rest being mast cells, Tregs, and monocytes.

[9] = Drug concentration measurement in tumors; type: in vivo, mouse; details: B16 tumors, continuous dosing
Description: To evaluate the intratumoral concentration of KTC1101, the B16 murine cancer model was established by subcutaneously implanting 2.5 × 10^5 B16 cells into the right lateral flank of C57BL/6 mice. The mouse model was utilized for experiments when tumor volumes reached approximately 100 mm^3. The B16 tumor-bearing C57BL/6 mice were divided into groups, with each group comprising three mice. They were treated with KTC1101 at doses of either 50 or 100 mg/kg (PO). The mice were sacrificed, and tumors were collected on days 1, 5, and 7 post-treatment. Approximately 50 mg of each tumor was homogenized in 1 mL of methanol, followed by centrifugation at 12,000 rpm at 4 °C for 10 min. The concentration of KTC1101 in the supernatant was quantified using LC–MS.

[10] = test system: p-Akt, p-S6, Ki67; assay: H&E and immunohistochemical staining of xenograft tumors; type: in vivo, mouse; details: IHC, PC3 and TMD8 xenografts
Description: H&E and IHC staining were performed as previously described. H&E staining was used to detect pathological changes in morphology. For histological analysis, formalin-fixed, paraffin-embedded tumors were sectioned, and slides were deparaffinized using xylene (Thermo Fisher). Endogenous peroxidases were quenched with 3% hydrogen peroxide in methanol. Staining was performed using antibodies against phosphorylated Akt (Ser473), phosphorylated S6 (Ser235/236), or Ki67. Counterstaining was performed with Mayer’s hematoxylin (Dako). Slides were observed under an Olympus CX21 microscope and scanned with a high-resolution digital slide scanner (Pannoramic 250, 3DHistech) to capture images.

With `COc1cc(N)cc2c1nc(C(F)F)n2-c1nc(N2CCCOCC2)nc(N2CCOCC2)n1` [KTC1101, 2-(difluoromethyl)-4-methoxy-1-(4-morpholino-6-(1,4-oxazepan-4-yl)-1,3,5-triazin-2-yl)-1H-benzo[d]imidazol-6-amine] as the compound, how does the anti-proliferative activity [1] read?
The anti-proliferative activity was “strong anti-proliferative activity”.

And the sensitivity in vitro [2]?
The sensitivity in vitro was “showed sensitivity”.

What about the IC50 [3] of the same compound?
Its IC50 is 20 to 130 nM.

And the “phosphorylation of AKT and mTOR” value [4]?
Its value is “reduced phosphorylation”.

What about the induction of apoptosis [5] of the same compound?
The induction of apoptosis was “did not observe a potent induction of apoptosis except HSC2 cell line”.

What about the “time until tumors started to progress” value [6] of the same compound?
Its value is 10 days.

And the “time until relapse was detected” value [7]?
The value was 18 days.

And the “immune-related pathways (GSEA, GSVA)” value [8]?
Its value is “prominently upregulated”.

What about the intratumoral drug concentration [9] of the same compound?
The intratumoral drug concentration was “accumulation of the drug in continuous dosing”.

What about the “Ki67 expression in tumor tissues” value [10] of the same compound?
Its value is “notable reduction in Ki67 expression”.

What about the “phosphorylation of AKT in tumor tissues” value [10] of the same compound?
The value was “decreased phosphorylation of AKT”.
